Results from article PMC8778187, “A New Oxygen Containing Pyclen-Type Ligand as a Manganese(II) Binder for MRI and ^52Mn PET Applications: Equilibrium, Kinetic, Relaxometric, Structural and Radiochemical Studies” (Molecules, 2022).

Test: Stability and protonation constants and pMn of Mn(II) complexes by pH-potentiometry
Assay type: physicochemical
Method: The stability and protonation constants of the metal complexes formed with H2OPC2A were determined by pH-potentiometric titrations, but, for the Cu(II) complex, UV-Vis spectrophotometric measurements were also carried out to supplement the pH-potentiometric titration data (Figures S21 and S22, Supporting Information).
The validity of the equilibrium model used for the fitting of the pH-potentiometric titration data for the Mn(II) system, was supported by ^1H relaxometric measurements, when 1/T1 and 1/T2 relaxation rates were determined as a function of pH, and their trends were compared to the species distribution curves calculated by using the equilibrium constants determined by pH-potentiometry (Table 3). The equilibrium for all metal ions can be described by considering the formation of only ([M(L)]) and monoprotonated ([M(HL)]) complexes (Table 3). However, for the Mn(II), Cu(II), and Zn(II) ions, the formation of ternary hydroxido species ([M(L)(OH)]) was also considered. A comparison of the pH-relaxation rate profiles normalized to 1 mM with the species distribution curves, confirmed that the equilibrium model applied for the fitting of pH-potentiometric titration data, satisfactorily described the Mn(II) system. […] The formation of the [Mn(3,9-OPC2A)] complex was also confirmed by analytical HPLC at pH 7.0 relying on the different retention times of the ligand and the complex (the difference is more than 2 min (Figures S20 and S23)).
The stability constants of the complexes are summarized and compared to those of the chelates formed with H21,7-DO2A, H21,4-DO2A, H23,6-PC2A, H23,9-PC2A, and H21,7-O2DO2A, in Table 3. H23,9-OPC2A forms considerably weaker complexes with all the metal ions involved in the study, than H23,9-PC2A, H23,6-PC2A, H21,7-DO2A, and H21,4-DO2A chelators. […] A similar trend in the stability constants can be observed, when the stability of the structurally related ligands is compared (H23,9-PC2A vs. H21,7-DO2A and, at a somewhat lesser extent, in the case of H23,6-PC2A vs. H21,4-DO2A ligands). […] Therefore, we have calculated the pMn values (pMn = −log(Mn(II)free) for the Mn complexes, by using the conditions proposed by É. Tóth and coworkers (cMn^2+ = cligand = 1 × 10^−5 M, T = 25 °C, pH = 7.4). As it is seen from the data presented in Table 3, the value characteristic for the [Mn(3,9-OPC2A)] complex is as high (pMn = 8.69) as it is for the [Mn(3,9-PC2A)] chelate (despite its lower stability constant), which is, in fact, the highest known value for a monoaquated macrocyclic Mn(II) complex (pMn = 8.64). This means that more than 99,97% of the total Mn(II) in the system is chelated by the H23,9-OPC2A ligand near pH = 7.4 in equilibrium.
Metal stock solutions were prepared from the highest analytical grade chemicals, and their concentrations were determined by complexometric titration with standardized Na2H2EDTA and eriochrome black T indicator in the presence of ascorbic acid, and potassium hydrogen tartrate for MnCl2, murexide indicator for CaCl2 and CuCl2, eriochrome black T for MgCl2 and xylenol orange in the presence of hexamethylenetetramine for the solution of ZnCl2. The concentration of the ligand stock solution was determined by pH-potentiometric titrations. The protonation constants of the ligand were determined by the pH potentiometric titrations with 0.15 M NaOH, using 0.0025 M ligand solutions. The ionic strength was set to 0.15 M by using NaCl. […]

[1] = Mn^2+ complex, T = 25 °C, I = 0.15 M NaCl

- log KMnHL [1]: 2.40(2)
- log KMnL [1]: 13.03(1)
- log KMnLOH [1]: 11.49(1)
- total Mn(II) chelated by the ligand in equilibrium (near pH = 7.4, pMn conditions): more than 99,97%
- pMn (pMn = −log(Mn(II)free), cMn^2+ = cligand = 1 × 10^−5 M, T = 25 °C, pH = 7.4): 8.69
SMILES: O=C(O)CN1CCOCCN(CC(=O)O)Cc2cccc(n2)C1 [H23,9-OPC2A, 6-Oxa-3,9,15-triazabicyclo(9.3.1)pentadeca-1(15),11,13-triene-3,9-diacetic acid]
